Values after ≈ are worked out from the molar mass of the structure shown.
Assays:
HUVEC = experiment: Cytotoxicity against human HUVEC cells assessed as reduction in cell viability by MTT assay; type: cell-based
SW1990 = experiment: Cytotoxicity against human SW1990 cells assessed as reduction in cell viability by MTT assay; type: functional, cell-based
NCI/ADR-RES = experiment: Cytotoxicity against human MCF7/ADR cells assessed as reduction in cell viability by MTT assay; type: functional, cell-based
MCF7 [1] = experiment: Cytotoxicity against human MCF7 cells assessed as reduction in cell viability by MTT assay; type: functional, cell-based
SMMC-7721 [2] = experiment: Cytotoxicity against human SMMC7721 cells assessed as reduction in cell viability by MTT assay; type: functional, cell-based
[3] = Cytotoxicity against human MGC832 cells assessed as reduction in cell viability after 48 hrs by MTT assay; type: functional, cell-based
HepG2 = experiment: Cytotoxicity against human HepG2 cells assessed as reduction in cell viability after 48 hrs by MTT assay; type: functional, cell-based; conditions: HepG2, 48 h
CCRF S-180 = experiment: Antitumor activity against mouse S180 cells xenografted in mouse assessed as reduction in tumor weight at 10 mg/kg relative to control; type: functional; parameters: scale not given: the % may be the effect or the level left
KB [4] = experiment: Potency index, ratio of TD50 for doxorubicin to TD50 for test compound for cytotoxicity against human KB cells assessed as reduction in cell viability; type: functional
[5] = Potency index, ratio of TD50 for doxorubicin to TD50 for test compound for cytotoxicity against human SW403 cells assessed as reduction in cell viability; type: functional
MCF7 [6] = experiment: Potency index, ratio of TD50 for doxorubicin to TD50 for test compound for cytotoxicity against human MCF7 cells assessed as reduction in cell viability; type: functional
L1210 [7] = experiment: Potency index, ratio of TD50 for doxorubicin to TD50 for test compound for cytotoxicity against mouse L1210 cells assessed as reduction in cell viability; type: functional
MRC5 = experiment: Cytotoxicity against human MRC5 cells assessed as reduction in cell viability; type: functional; conditions: read-out: TD50 (the source's name)
[8] = Cytotoxicity against human WI38 cells assessed as reduction in cell viability; type: cell-based; conditions: WI-38 cells, read-out: TD50 (the source's name)
OVCAR-3 [9] = experiment: Potency index, ratio of TD50 for doxorubicin to TD50 for test compound for cytotoxicity against human OVCAR3 cells assessed as reduction in cell viability; type: functional
OVCAR-3 [10] = experiment: Cytotoxicity against human OVCAR3 cells assessed as reduction in cell viability; type: functional; conditions: read-out: TD50 (the source's name)
DU-145 = experiment: Cytotoxicity against human DU145 cells assessed as reduction in cell viability after 48 hrs by SRB assay; type: functional, cell-based; conditions: DU-145, 48 h
Hep 3B2 [11] = experiment: Cytotoxicity against human Hep3B cells assessed as reduction in cell viability by MTT assay; type: functional, cell-based
HCT-8 = experiment: Antiproliferative activity against human HCT8 cells after 48 hrs by MTT assay; type: functional, cell-based; conditions: HCT-8, 48 h
PC-3 = experiment: Cytotoxicity against human PC3 cells assessed as reduction in cell viability after 48 hrs by SRB assay; type: functional, cell-based; conditions: PC-3, 48 h
HL-60 [12] = experiment: Cytotoxicity against human HL60 cells assessed as reduction in cell viability by MTT assay; type: functional, cell-based
[13] = Toxicity in mouse xenografted with human CX-1 cells; conditions: in vivo
Hep 3B2 [14] = experiment: Cytotoxicity against human Hep3B cells assessed as reduction in cell viability; type: functional, cell-based
L1210 [15] = experiment: Antiproliferative activity against mouse L1210 cells by MTT assay; type: functional, cell-based
CAPAN-1 [16] = experiment: Cytotoxicity against human Capan1 cells assessed as reduction in cell viability; type: functional, cell-based
HL-60 [17] = experiment: Cytotoxicity against human HL60 cells assessed as reduction in cell viability; type: functional, cell-based
L1210 [18] = experiment: Antiproliferative activity against mouse L1210 cells after 24 to 72 hrs by MTT assay; type: functional, cell-based
KB [19] = experiment: Cytotoxicity against human KB cells assessed as reduction in cell viability; type: functional; conditions: read-out: TD50 (the source's name)
SMMC-7721 [20] = experiment: Cytotoxicity against human SMMC7721 cells assessed as reduction in cell viability; type: functional, cell-based
L1210 [21] = experiment: Cytotoxicity against mouse L1210 cells assessed as reduction in cell viability; type: functional, cell-based
SMMC-7721 [22] = experiment: Antiproliferative activity against human SMMC7721 cells after 24 to 72 hrs by MTT assay; type: functional, cell-based
L1210 [23] = experiment: Cytotoxicity against mouse L1210 cells assessed as reduction in cell viability by MTT assay; type: functional, cell-based
SMMC-7721 [24] = experiment: Antiproliferative activity against human SMMC7721 cells by MTT assay; type: functional, cell-based
[25] = Toxicity in mouse xenografted with human MB-9812 cells
HL-60 [26] = experiment: Antiproliferative activity against human HL60 cells after 24 to 72 hrs by MTT assay; type: functional, cell-based
MCF7 [27] = experiment: Cytotoxicity against human MCF7 cells assessed as reduction in cell viability; type: functional, cell-based; conditions: read-out: TD50 (the source's name)
CAPAN-1 [28] = experiment: Cytotoxicity against human Capan1 cells assessed as reduction in cell viability by MTT assay; type: functional, cell-based
HCT-116 = experiment: Cytotoxicity against human HCT116 cells assessed as reduction in cell viability by SRB assay; type: functional, cell-based
[29] = Cytotoxicity against human SW403 cells assessed as reduction in cell viability; type: functional; conditions: SW-403, read-out: TD50 (the source's name)
CHO = experiment: Cytotoxicity against CHO cells assessed as reduction in cell viability by MTT assay; type: cell-based; conditions: Cricetulus griseus
A549 = experiment: Antiproliferative activity against human A549 cells after 72 hrs by MTT assay; type: functional, cell-based; conditions: A549, 72 h
HL-60 [30] = experiment: Antiproliferative activity against human HL60 cells after 72 hrs by MTT assay; type: functional, cell-based; conditions: HL-60, 72 h
HeLa [31] = experiment: Antiproliferative activity against human HeLa cells after 72 hrs by MTT assay; type: functional, cell-based
HeLa [32] = experiment: Cytotoxicity against human HeLa cells assessed as reduction in cell viability after 48 hrs by MTT assay; type: functional, cell-based
Caspase-3 = Caspase-3 (Homo sapiens, UniProt P42574); experiment: Activation of caspase 3 in human SMMC7721 cells; type: cell-based, SMMC-7721
Apoptosis regulator BAX = Apoptosis regulator BAX (Homo sapiens, UniProt Q07812); experiment: Activation of Bax in human SMMC7721 cells; type: cell-based, SMMC-7721
[33] = target: Cellular tumor antigen p53 (Homo sapiens, UniProt P04637); experiment: Activation of p53 in human SMMC7721 cells; type: cell-based, SMMC-7721
Caspase-9 = Caspase-9 (Homo sapiens, UniProt P55211); experiment: Activation of caspase 9 in human SMMC7721 cells; type: cell-based, SMMC-7721
Hep 3B2 [34] = experiment: Antiproliferative activity against human Hep3B cells after 24 to 72 hrs by MTT assay; type: functional, cell-based

Sequence of Cellular tumor antigen p53 (P04637 whole entry): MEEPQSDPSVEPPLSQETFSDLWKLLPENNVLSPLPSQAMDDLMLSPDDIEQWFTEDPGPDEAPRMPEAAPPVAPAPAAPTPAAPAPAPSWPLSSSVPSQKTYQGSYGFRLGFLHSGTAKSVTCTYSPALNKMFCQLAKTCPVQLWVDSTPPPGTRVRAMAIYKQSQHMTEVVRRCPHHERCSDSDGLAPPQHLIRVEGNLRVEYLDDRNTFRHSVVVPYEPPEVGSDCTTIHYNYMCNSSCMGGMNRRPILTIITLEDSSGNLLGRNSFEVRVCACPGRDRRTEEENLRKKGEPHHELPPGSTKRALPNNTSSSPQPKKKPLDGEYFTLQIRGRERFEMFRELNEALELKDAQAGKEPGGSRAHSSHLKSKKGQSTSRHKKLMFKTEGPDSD
Sequence of Apoptosis regulator BAX (Q07812 whole entry): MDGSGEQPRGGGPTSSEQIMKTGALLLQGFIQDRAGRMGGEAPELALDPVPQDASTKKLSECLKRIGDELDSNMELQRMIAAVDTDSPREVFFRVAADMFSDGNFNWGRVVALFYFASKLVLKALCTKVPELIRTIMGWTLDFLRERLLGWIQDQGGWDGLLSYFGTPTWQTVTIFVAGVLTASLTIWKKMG
Sequence of Caspase-9 (P55211 1-315 limits assumed): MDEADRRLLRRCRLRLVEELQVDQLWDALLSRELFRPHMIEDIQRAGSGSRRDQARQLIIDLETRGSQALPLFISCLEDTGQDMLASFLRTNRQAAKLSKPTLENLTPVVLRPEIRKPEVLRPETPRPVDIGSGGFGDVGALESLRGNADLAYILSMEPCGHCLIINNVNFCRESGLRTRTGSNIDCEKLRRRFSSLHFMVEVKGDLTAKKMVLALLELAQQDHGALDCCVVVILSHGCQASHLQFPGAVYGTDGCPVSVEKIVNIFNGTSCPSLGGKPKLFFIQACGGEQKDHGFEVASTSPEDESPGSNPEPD
Sequence of Caspase-9 (P55211 331-416 limits assumed): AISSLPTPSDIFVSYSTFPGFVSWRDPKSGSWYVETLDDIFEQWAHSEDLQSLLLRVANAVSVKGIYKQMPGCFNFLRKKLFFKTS
Sequence of Caspase-3 (P42574 29-175 limits assumed): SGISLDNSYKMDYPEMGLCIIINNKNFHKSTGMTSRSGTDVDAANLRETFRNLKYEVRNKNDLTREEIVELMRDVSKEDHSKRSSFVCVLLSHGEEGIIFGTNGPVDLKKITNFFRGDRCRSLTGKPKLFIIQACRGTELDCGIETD
Sequence of Caspase-3 (P42574 176-277 limits assumed): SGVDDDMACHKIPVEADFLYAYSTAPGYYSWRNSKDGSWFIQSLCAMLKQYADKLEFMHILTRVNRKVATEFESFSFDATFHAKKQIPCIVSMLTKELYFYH

COc1ccc2cc3[n+](cc2c1OCc1cn(Cc2cc(=O)[nH]c4ccccc24)nn1)-c1cc2c(cc1CC3)OCO2
IC50 (HUVEC): 75600 to 181000 nM
IC50 (SW1990): 75600 to 181000 nM
IC50 (NCI/ADR-RES): 75600 to 181000 nM
IC50 (MCF7 [1]): 75600 to 181000 nM
IC50 (SMMC-7721 [2]): 75600 to 181000 nM

O=C(O)c1c(-c2ccc[nH]2)[nH]c2ccccc2c1=O [PENICINOLINE]
IC50 [3]: 91 nM
IC50 (HepG2): 7 nM

Cc1cn(-c2ccc(CCCCCCCCCCn3ccc(=O)c4c(N)cccc43)cc2)nn1
Activity (CCRF S-180): 13.1%
Ratio (KB [4]): >=4.6
Ratio [5]: >=4.6
Ratio (MCF7 [6]): >=4.6
Ratio (L1210 [7]): >=4.6
CC50 (MRC5): 0.033 µg/mL (≈ 0.0721 µM)
CC50 [8]: 7.45 µg/mL (≈ 16.3 µM)
Ratio (OVCAR-3 [9]): >=4.6

COc1cccc2c1C(=O)c1c(O)c3c(c(O)c1C2=O)C[C@@](O)(C(=O)CO)C[C@@H]3O[C@H]1C[C@H](N)[C@H](O)[C@H](C)O1 [DOXORUBICIN]
CC50 (OVCAR-3 [10]): 0.014 to 0.098 µg/mL (≈ 0.0258 to 0.18 µM)
IC50 (DU-145): 0.4 µg/mL (≈ 0.736 µM)
IC50 (Hep 3B2 [11]): 1800 to 3500 nM
IC50 (HCT-8): 7200 nM
IC50 (PC-3): 0.4 µg/mL (≈ 0.736 µM)
IC50 (HL-60 [12]): 1200 to 2600 nM
LD50 [13]: 11 mg/kg
IC50 (Hep 3B2 [14]): 2600 nM
IC50 (L1210 [15]): 4200 nM
IC50 (CAPAN-1 [16]): 1700 nM
IC50 (HL-60 [17]): 3500 nM
IC50 (L1210 [18]): 1700 nM
CC50 (KB [19]): 0.014 to 0.098 µg/mL (≈ 0.0258 to 0.18 µM)
IC50 (SMMC-7721 [20]): 1600 to 3000 nM
IC50 (L1210 [21]): 1600 to 3000 nM
IC50 (SMMC-7721 [22]): 2500 nM
IC50 (L1210 [23]): 1200 to 2600 nM
IC50 (SMMC-7721 [24]): 2300 nM
LD50 [25]: 11 mg/kg
IC50 (HL-60 [26]): 3600 nM
CC50 (MCF7 [27]): 0.014 to 0.098 µg/mL (≈ 0.0258 to 0.18 µM)
IC50 (SMMC-7721 [2]): 1200 to 2600 nM
IC50 (CAPAN-1 [28]): 1800 to 3500 nM
IC50 (HCT-116): 8.8 nM
CC50 [29]: 0.014 to 0.098 µg/mL (≈ 0.0258 to 0.18 µM)

COc1ccc(-c2nnc(CSc3nnc(-c4cn(C5CC5)c5cc(N6CCN(C)CC6)c(F)cc5c4=O)o3)o2)cc1
IC50 (HL-60 [12]): 1100 to 2800 nM
IC50 (CHO): 1100 to 2800 nM
IC50 (L1210 [23]): 1100 to 2800 nM
IC50 (SMMC-7721 [2]): 1100 to 2800 nM

N=C(NS(=O)(=O)c1cccc(C(F)(F)F)c1)N1CCN(c2cc3c(cc2F)c(=O)c(C(=O)O)cn3-c2ccc(F)cc2F)CC1
IC50 (A549): 28 nM
IC50 (HL-60 [30]): 18 nM
IC50 (HeLa [31]): 10 nM

COC(=O)c1c(-c2ccc[nH]2)[nH]c2ccccc2c1=O
IC50 (HeLa [32]): 110 nM
IC50 [3]: 13 nM

O=C(N/N=C/c1ccc2c(c1)OCO2)c1cn(C2CC2)c2cc(N3CCNCC3)c(F)cc2c1=O
IC50 (Caspase-3): 3000 to 7390 nM
IC50 (Apoptosis regulator BAX): 3000 to 7390 nM
IC50 [33]: 3000 to 7390 nM
IC50 (L1210 [18]): 1400 to 52300 nM
IC50 (Caspase-9): 3000 to 7390 nM
IC50 (SMMC-7721 [22]): 1400 to 52300 nM
IC50 (Hep 3B2 [34]): 1400 to 52300 nM
IC50 (HL-60 [26]): 1400 to 52300 nM

Source: ChEMBL document CHEMBL4613209, “Quinolone hybrids and their anti-cancer activities: An overview” (Eur J Med Chem, 2019)
